Reference: ChEMBL document CHEMBL5365421, “Design, synthesis, antitumor activity, and molecular dynamics simulations of novel sphingosine kinase 2 inhibitors” (Bioorg Med Chem, 2023)

Legend:
[1] = tested on: MGC-803; experiment: Antiproliferative activity against human MGC-803 cells assessed as cell growth inhibition measured after 48 hrs by MTT assay; format: functional, cell-based; conditions: MGC-803, 48 h
[2] = tested on: MCF7; experiment: Antiproliferative activity against human MCF7 cells assessed as cell growth inhibition measured after 48 hrs by MTT assay; format: functional, cell-based; conditions: MCF7, 48 h
[3] = tested on: MCF7; experiment: Inhibition of cell migration in human MCF7 cells assessed as reduction in scratch healing rate measured after 24 to 48 hrs by microscopic analysis; format: functional, cell-based; conditions: dose 20-100 µM, time lower 24.0 hrs, time upper […]
[4] = biological target: Sphingosine kinase 1 (Homo sapiens, UniProt Q9NYA1); experiment: Inhibition of SphK1 (unknown origin) using D-Sph as substrate incubated for 40 mins by ADP-Glo Plus luminescence kinase assay
Sphingosine kinase 1, sequence (Q9NYA1 whole entry): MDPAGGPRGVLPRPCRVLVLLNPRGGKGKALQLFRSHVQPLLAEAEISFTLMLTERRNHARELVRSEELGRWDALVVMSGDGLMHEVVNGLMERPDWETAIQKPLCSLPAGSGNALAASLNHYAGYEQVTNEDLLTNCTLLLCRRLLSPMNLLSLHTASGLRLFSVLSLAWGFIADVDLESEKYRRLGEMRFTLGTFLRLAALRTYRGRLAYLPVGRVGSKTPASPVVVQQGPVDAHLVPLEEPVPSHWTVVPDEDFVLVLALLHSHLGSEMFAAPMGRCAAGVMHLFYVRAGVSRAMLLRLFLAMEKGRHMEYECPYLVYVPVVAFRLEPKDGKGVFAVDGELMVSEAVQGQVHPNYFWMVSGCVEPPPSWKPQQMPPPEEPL

[5] = biological target: T1, Sphingosine kinase 2 (Homo sapiens, UniProt Q9NRA0); experiment: Inhibition of SphK2 (unknown origin) using NBD-Sph as substrate by fluorescent plate reader analysis
T1 sequence (Q9NRA0 whole entry): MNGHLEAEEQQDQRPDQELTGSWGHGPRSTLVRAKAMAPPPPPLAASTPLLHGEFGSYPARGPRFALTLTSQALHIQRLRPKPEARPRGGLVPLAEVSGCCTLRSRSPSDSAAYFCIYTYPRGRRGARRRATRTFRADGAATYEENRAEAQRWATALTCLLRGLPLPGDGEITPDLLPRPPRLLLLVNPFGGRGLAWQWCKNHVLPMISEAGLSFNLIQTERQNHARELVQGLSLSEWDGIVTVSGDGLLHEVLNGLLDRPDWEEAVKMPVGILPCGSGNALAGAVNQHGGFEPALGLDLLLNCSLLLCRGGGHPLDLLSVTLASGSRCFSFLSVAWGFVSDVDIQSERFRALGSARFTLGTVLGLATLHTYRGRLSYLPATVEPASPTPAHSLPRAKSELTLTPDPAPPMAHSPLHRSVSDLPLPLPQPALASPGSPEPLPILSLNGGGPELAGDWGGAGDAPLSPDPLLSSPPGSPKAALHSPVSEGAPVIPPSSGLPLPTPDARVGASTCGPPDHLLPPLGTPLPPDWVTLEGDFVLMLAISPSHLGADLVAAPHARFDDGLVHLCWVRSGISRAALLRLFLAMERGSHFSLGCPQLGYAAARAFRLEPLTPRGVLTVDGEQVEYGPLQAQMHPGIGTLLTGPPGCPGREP

[6] = tested on: U-937; experiment: Antiproliferative activity against human U-937 cells assessed as cell growth inhibition measured after 48 hrs by MTT assay; format: functional, cell-based; conditions: U-937, 48 h
[7] = biological target: T2, Sphingosine kinase 2 (Homo sapiens) (UniProt Q9NRA0); experiment: Inhibition of SphK2 (unknown origin) using NBD-Sph as substrate at 10 uM by fluorescent plate reader analysis relative to control
T2 sequence (whole entry): T1 sequence (Q9NRA0 whole entry)

[8] = biological target: T1, Sphingosine kinase 2; experiment: Inhibition of recombinant SphK2 (unknown origin) using sphingosine as substrate assessed as inhibition constant by Lineweaver-burk plot analysis

| Compound | IC50 [1] | IC50 [2] | inhibition [3] | IC50 [4] | IC50 [5] | IC50 [6] | inhibition [7] | Ki [8] |
| --- | --- | --- | --- | --- | --- | --- | --- | --- |
| O=C(c1ccc(OCc2noc(-c3ccc(C(F)(F)F)cc3)n2)cc1)N1CCC[C@@H]1CO | 35.9 µM | 21.1 µM | Dose-Dependent Effect | 17.7 µM | 0.00343 µM | 51.1 µM | – | – |
| NC(=O)[C@H]1CCCN1C(=O)c1ccc(COc2cccc(OCc3ccccc3)c2)cc1 | > 81.5 µM | > 100 µM | – | – | 0.96 µM | 45.6 µM | – | – |
| O=C(c1ccc(COc2cccc(OCc3ccccc3)c2)cc1)N1CCC[C@H]1CO | > 79.8 µM | > 100 µM | – | – | > 10 µM | 29.9 µM | < 50% | – |
| CCCCOc1ccc(CC/C=C2\SC(=O)N(CCN)C2=O)cc1 | – | – | – | – | – | – | – | 6.5 µM |
| NC(=O)[C@@H]1CCCN1C(=O)c1ccc(OCc2noc(-c3ccc(Cl)cc3)n2)cc1 | 40.6 µM | > 100 µM | – | – | > 10 µM | 31.2 µM | < 50% | – |
| NCCNC(=O)c1ccc(OCc2noc(-c3ccc(C(F)(F)F)cc3)n2)cc1 | 40.8 µM | 39.6 µM | – | – | > 10 µM | 32.9 µM | – | – |
| NC(=O)CNC(=O)c1ccc(OCc2noc(-c3ccc(Cl)cc3)n2)cc1 | 29.8 µM | 55.4 µM | – | – | > 10 µM | 10 µM | < 50% | – |
| O=C(NCCO)c1ccc(COc2cccc(OCc3ccccc3)c2)cc1 | 37.7 µM | 34.7 µM | – | 35.6 µM | 1.25 µM | 34.7 µM | – | – |
| O=C(c1ccc(OCc2noc(-c3ccc(Cl)cc3)n2)cc1)N1CCC[C@H]1CO | 22.9 µM | 8.61 µM | – | 8.96 µM | > 10 µM | 17.3 µM | < 50% | – |
| O=C(c1ccc(COc2cccc(OCc3ccccc3)c2)cc1)N1CCC[C@@H]1CO | 61.8 µM | 30.5 µM | – | – | 1.23 µM | 69.5 µM | – | – |
| O=C(NCCO)c1ccc(OCc2noc(-c3ccc(Cl)cc3)n2)cc1 | 37 µM | 55.2 µM | – | – | > 10 µM | 20.1 µM | < 50% | – |
| NC(=O)[C@@H]1CCCN1C(=O)c1ccc(COc2cccc(OCc3ccccc3)c2)cc1 | 38.6 µM | > 100 µM | – | 66.2 µM | > 10 µM | > 100 µM | – | – |
| NC(=O)[C@H]1CCCN1C(=O)c1ccc(OCc2noc(-c3ccc(C(F)(F)F)cc3)n2)cc1 | 19.2 µM | 24.4 µM | Dose-Dependent Effect | 21.9 µM | 0.0024 µM | 25.6 µM | – | – |
| O=C(NCCO)c1ccc(OCc2noc(-c3ccc(C(F)(F)F)cc3)n2)cc1 | 26.1 µM | 58 µM | – | – | 0.0358 µM | 68.9 µM | – | – |
